According to the NIST ThermoML archive (doi:10.1016/j.jct.2019.03.022):

Conditions: Liquid, Frequency=5 MHz, Pulse-echo method

Cc1ccc(C)cc1 [1,4-dimethylbenzene]
Conditions	speed of sound [m/s]
355.92 K, 15640 kPa	1177.7
355.94 K, 920 kPa	1085.7
355.94 K, 20950 kPa	1207.3
355.95 K, 490 kPa	1082.6
355.95 K, 2620 kPa	1097
355.95 K, 25050 kPa	1229.2
355.95 K, 31130 kPa	1260.2
355.96 K, 10930 kPa	1149.9
355.98 K, 270 kPa	1081
355.98 K, 5370 kPa	1115.1
355.98 K, 65160 kPa	1410.3
356 K, 59390 kPa	1387.1
356.02 K, 41360 kPa	1308.9
356.02 K, 45060 kPa	1325.7
356.04 K, 54960 kPa	1368.5
356.05 K, 34600 kPa	1276.9
356.08 K, 50520 kPa	1349.5
373.53 K, 2520 kPa	1031.7
373.53 K, 5450 kPa	1052.5
373.54 K, 2530 kPa	1031.7
373.55 K, 950 kPa	1020.1
373.57 K, 44340 kPa	1271.8
373.58 K, 570 kPa	1017.1
373.58 K, 49640 kPa	1296.2
373.59 K, 240 kPa	1014.6
373.6 K, 10260 kPa	1084.6
373.6 K, 19750 kPa	1143.4
373.6 K, 29800 kPa	1199.1
373.6 K, 29850 kPa	1199.3
373.6 K, 35000 kPa	1226.1
373.61 K, 14920 kPa	1114.2
373.61 K, 59070 kPa	1337.5
373.62 K, 20290 kPa	1146.4
373.62 K, 39790 kPa	1249.8
373.62 K, 40800 kPa	1254.9
373.62 K, 58970 kPa	1337.1
373.63 K, 24920 kPa	1172.7
373.63 K, 54980 kPa	1319.8
373.64 K, 64880 kPa	1361.7
398.19 K, 37260 kPa	1168.3
398.2 K, 220 kPa	923.76
398.2 K, 29920 kPa	1127.9
398.2 K, 37270 kPa	1168.3
398.2 K, 40070 kPa	1182.9
398.2 K, 54810 kPa	1254.7
398.2 K, 60130 kPa	1278.8
398.21 K, 500 kPa	926.17
398.21 K, 34890 kPa	1155.4
398.21 K, 44950 kPa	1207.5
398.21 K, 64730 kPa	1299
398.22 K, 1040 kPa	930.76
398.22 K, 20010 kPa	1068.5
398.22 K, 24890 kPa	1098.6
398.23 K, 50040 kPa	1232.3
398.24 K, 5190 kPa	964.55
398.24 K, 15110 kPa	1036.5
398.24 K, 31220 kPa	1135.2
398.25 K, 2490 kPa	942.77
398.25 K, 10300 kPa	1002.9
398.25 K, 19720 kPa	1066.6
398.25 K, 31220 kPa	1135.2
398.26 K, 12650 kPa	1019.5
422.57 K, 5690 kPa	886.27
422.65 K, 2630 kPa	858.44
422.7 K, 14830 kPa	959.38
422.72 K, 550 kPa	838.3
422.72 K, 50170 kPa	1171.8
422.73 K, 190 kPa	834.7
422.73 K, 28590 kPa	1052.1
422.73 K, 54780 kPa	1194.6
422.74 K, 1230 kPa	844.88
422.74 K, 9190 kPa	915.48
422.74 K, 44830 kPa	1144.4
422.75 K, 780 kPa	840.37
422.75 K, 10020 kPa	922.14
422.75 K, 19940 kPa	995.75
422.75 K, 24810 kPa	1028.2
422.75 K, 29890 kPa	1060
422.75 K, 64580 kPa	1240.2
422.76 K, 59900 kPa	1218.7
422.77 K, 34850 kPa	1089.3
422.77 K, 40720 kPa	1122.3
446.94 K, 5130 kPa	800.91
446.99 K, 10180 kPa	848.37
446.99 K, 14830 kPa	887.97
447 K, 19890 kPa	927.32
447.01 K, 7300 kPa	821.88
447.02 K, 1020 kPa	756.94
447.02 K, 24900 kPa	963.22
447.03 K, 22500 kPa	946.32
447.07 K, 300 kPa	748.43
447.07 K, 580 kPa	751.73
447.08 K, 49880 kPa	1113.3
447.08 K, 64750 kPa	1187.3
447.09 K, 30510 kPa	1000.7
447.11 K, 54450 kPa	1137
447.12 K, 40150 kPa	1059.5
447.13 K, 35270 kPa	1030.4
447.13 K, 45010 kPa	1086.9
447.13 K, 59760 kPa	1163.3
